Test results: patent US20120328569A1, “INHIBITORS OF HEPATITIS C VIRUS NS5B POLYMERASE” (priority 2010, published 2012)

Tested on: HCV genotype 1b replicon
Test: HCV replicon assay, cell ELISA with antibody to replicon-encoded NS3/4A (genotype 1b replicon)
Type: cell-based, hepatitis C virus
Details: Hepatitis C virus, 96 h, read-out: Replicon 1b IC50 (nM), HCV genotype 1b replicon cells, 96 hours incubation, NS3/4A ELISA readout
In short: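 Replicon-harbouring cells carrying neomycin phosphotransferase were incubated 96 h with a compound dilution series without G418. Replication was quantified indirectly by a cell ELISA detecting replicon-encoded NS3/4A. IC50 values were calculated relative to DMSO control with a four-parameter fit.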

SMILES | IC50 [nM]
CNC(=O)c1c(-c2ccc(F)cc2)oc2cc(N(C)S(C)(=O)=O)c(-c3cccc(-c4nc5cc(F)ccc5[nH]4)c3)cc12 [Example 150, 5-[3-(5-fluoro-1H-benzimidazol-2-yl)phenyl]-2-(4-fluorophenyl)-N-methyl-6-[methyl(methylsulfonyl)amino]-1-benzofuran-3-carboxamide] | 1
CNC(=O)c1c(-c2ccc(F)cc2)oc2cc(N(C)S(C)(=O)=O)c(-c3cccc(-c4nc5ccccc5[nH]4)c3)cc12 [Example 151, 5-[3-(1H-benzimidazol-2-yl)phenyl]-2-(4-fluorophenyl)-N-methyl-6-[methyl (methylsulfonyl)amino]-1-benzofuran-3-carboxamide] | 5
CNC(=O)c1c(-c2ccc(F)cc2)oc2cc(N(C)S(C)(=O)=O)c(-c3cccc(-c4nc5ccc(C#N)cc5[nH]4)c3)cc12 [Example 152, 5-[3-(6-cyano-1H-benzimidazol-2-yl)phenyl]-2-(4-fluorophenyl)-N-methyl-6-[methyl (methylsulfonyl)amino]-1-benzofuran-3-carboxamide] | 4
CNC(=O)c1c(-c2ccc(F)cc2)oc2cc(N(C)S(C)(=O)=O)c(-c3cccc(-c4nc5ccc(Br)cc5[nH]4)c3)cc12 [Example 153, 5-[3-(6-bromo-1H-benzimidazol-2-yl)phenyl]-2-(4-fluorophenyl)-N-methyl-6-[methyl (methylsulfonyl)amino]-1-benzofuran-3-carboxamide] | 4
CNC(=O)c1c(-c2ccc(F)cc2)oc2cc(N(C)S(C)(=O)=O)c(-c3cccc(-c4nc5ccc(C)cc5[nH]4)c3)cc12 [Example 154, 2-(4-fluorophenyl)-N-methyl-5-[3-(6-methyl-1H-benzimidazol-2-yl)phenyl]-6-[methyl (methylsulfonyl)amino]-1-benzofuran-3-carboxamide] | 4
CNC(=O)c1c(-c2ccc(F)cc2)oc2cc(N(C)S(C)(=O)=O)c(-c3cccc(-c4nc5ncccc5o4)c3)cc12 [Example 155, 2-(4-fluorophenyl)-N-methyl-6-(N-methylmethylsulfonamido)-5-(3-(oxazolo[4,5-b]pyridin-2-yl)phenyl)benzofuran-3-carboxamide] | 1.1
CNC(=O)c1c(-c2ccc(F)cc2)oc2cc(N(C)S(C)(=O)=O)c(-c3cccc(-c4nc5ccccc5o4)c3)cc12 [Example 156] | 6.9
CNC(=O)c1c(-c2ccc(F)cc2)oc2cc(N(C)S(C)(=O)=O)c(-c3cccc(-c4nc5ccccc5o4)c3OC)cc12 [Example 157] | 22.7
CNC(=O)c1c(-c2ccc(F)cc2)oc2cc(N(C)S(C)(=O)=O)c(-c3cccc(-c4nc5cc(F)ccc5o4)c3)cc12 [Example 158] | 4.8
CNC(=O)c1c(-c2ccc(F)cc2)oc2cc(N(C)S(C)(=O)=O)c(-c3cccc(-c4nc5ccc(F)cc5o4)c3)cc12 [Example 159] | 1.8
CNC(=O)c1c(-c2ccc(F)cc2)oc2cc(N(C)S(C)(=O)=O)c(-c3cccc(-c4nc5cccc(F)c5o4)c3)cc12 [Example 160] | 7
CNC(=O)c1c(-c2ccc(F)cc2)oc2cc(N(C)S(C)(=O)=O)c(-c3cc(F)cc(-c4nc5cccc(F)c5o4)c3)cc12 [Example 161] | 3.7
CNC(=O)c1c(-c2ccc(F)cc2)oc2cc(N(C)S(C)(=O)=O)c(-c3cc(F)cc(-c4nc5cc(Cl)ccc5o4)c3)cc12 [Example 162] | 8.2
CNC(=O)c1c(-c2ccc(F)cc2)oc2cc(N(C)S(C)(=O)=O)c(-c3cc(F)cc(-c4nc5ccc(Cl)cc5o4)c3)cc12 [Example 163] | 8.5
CNC(=O)c1c(-c2ccc(F)cc2)oc2cc(N(C)S(C)(=O)=O)c(-c3cc(F)cc(-c4nc5cccc(Cl)c5o4)c3)cc12 [Example 164] | 16.5
CNC(=O)c1c(-c2ccc(F)cc2)oc2cc(N(C)S(C)(=O)=O)c(-c3cc(F)cc(-c4nc5c(C)cccc5o4)c3)cc12 [Example 165] | 4.7
CNC(=O)c1c(-c2ccc(F)cc2)oc2cc(N(C)S(C)(=O)=O)c(-c3cc(F)cc(-c4nc5ccc(C)cc5o4)c3)cc12 [Example 166] | 4.4
